# Values quoted from earlier work, collected in patent US9329191B2, “Reaction-based fluorescent probe for selective detection of carbon monoxide using metal-mediated carbonylation” (THE REGENTS OF THE UNIVERSITY OF CALIFORNIA, priority 2013, dated 2016).
# Details: literature
smiles,measurement,value
"NCC(=O)O.[C-]#[O+].[C-]#[O+].[C-]#[O+].[Cl][Ru] [CORM-3, [Ru(CO)3Cl(glycinate)]]",CORM-3 concentration shown to not alter cell viability,up to 500 μM
